US20210198647A1, “Enhancers of Neurolysin Activity” (Texas Tech University System, priority 2018, published 2021)
Where two headings read alike, the source gives them in different places. Square brackets hold non-standard residues; d marks the D form. Peptide text beside a SMILES is read from it. * marks the point of attachment. Boc = CC(C)(C)OC(=O)*

Columns and labels:
Neurolysin (Nln) = target: T1, Neurolysin (Nln) (Rattus norvegicus, UniProt P42676); experiment: Nln activation in isolated enzyme assay (A50, Amax); assay type: biochemical; conditions: for EC50: read-out: A50 (concentration required to activate Nln by 50%)
T1 construct: polyhistidine (N); made in house; host or cells: Escherichia coli (pBAD/His vector), if the rat enzyme of b61 was used

[1] = target: T2, rat recombinant neurolysin (Rattus norvegicus, UniProt P42676); experiment: Enzymatic assay: QFS hydrolysis by rat recombinant neurolysin; assay type: biochemical; conditions: QFS 25 μM, compared to vehicle control; for % activity at 10: 10 μM compound; for % activity at (100): 100 μM compound
T2 construct: polyhistidine (N); made in house; host or cells: Escherichia coli (pBAD/His vector)
Experimental: Rat recombinant neurolysin—N-terminal polyhistidine tagged recombinant rat neurolysin was produced in Escherichia coli using a plasmid construct in pBAD/His vector system (Invitrogen) kindly provided by Dr. David W. Rodgers (University of Kentucky) (32,33). Bacterial culture was carried out in Terrific Broth in 2 L Erlenmeyer flasks using an incubator shaker (1-2400, New Brunswick Scientific). Expression was induced by addition of arabinose (1 mM final concentration), the cells were pelleted 3 h after induction and stored at −80° C. freezer. Bacterial pellets were resuspended and lysed in phosphate buffer (20 mM NaH2PO4, 500 mM NaCl, 0.05% Tween-20, pH 8.0) containing 0.25 mg/ml lysozyme, 1 mM phenylmethylsulfonyl fluoride, 0.05 mg/ml DNAse and 0.02 mg/ml RNase, followed by brief sonication. After centrifugation (40,000×g, 20 min at 4° C.) the supernatant was applied to a Ni-NTA Superflow cartridge (Qiagen), followed by washing and elution of recombinant neurolysin with phosphate buffer containing 25 and 250 mM imidazole, respectively. The eluted protein was further purified by size exclusion chromatography using a TSK gel BioAssist G2SWxl column (Tosoh bioscience) in AKTA Purifier FPLC system (GE Healthcare). […] Specific activity of recombinant neurolysin was determined by an enzymatic assay described below.
All assays were initiated by addition of QFS (100 μl assay volume in 96-well plates), and each experimental sample was present in duplicate.
In all experiments, test compounds were incubated with neurolysin for 10 min at 37° C. before addition of the substrate to start the reaction. All test compounds were dissolved in DMSO at 10 to 50 mM stock concentrations.
Statistical Analyses—statistical analyses and curve fitting were conducted with GraphPad Prism 6.0 software. For each enzymatic reaction, slope of the line which represents the initial velocity (Vo) for the reaction progress curve was calculated using the liner regression model of the software (Vo=Slope=Δ fluorescent intensity of the reaction product/Δ time). EC50 values for the modulators were calculated by fitting initial velocity values for hydrolysis of QFS by neurolysin in the presence of varying concentrations of a modulator into a nonlinear regression model for the three-parameter log(stimulator) vs. response equation [Y=Bottom+(Top−Bottom)/(1+10^((Log EC50−X)))].

[2] = 100% = normal enzyme turnover, 95% CI in parentheses

T1 sequence (P42676 38-704): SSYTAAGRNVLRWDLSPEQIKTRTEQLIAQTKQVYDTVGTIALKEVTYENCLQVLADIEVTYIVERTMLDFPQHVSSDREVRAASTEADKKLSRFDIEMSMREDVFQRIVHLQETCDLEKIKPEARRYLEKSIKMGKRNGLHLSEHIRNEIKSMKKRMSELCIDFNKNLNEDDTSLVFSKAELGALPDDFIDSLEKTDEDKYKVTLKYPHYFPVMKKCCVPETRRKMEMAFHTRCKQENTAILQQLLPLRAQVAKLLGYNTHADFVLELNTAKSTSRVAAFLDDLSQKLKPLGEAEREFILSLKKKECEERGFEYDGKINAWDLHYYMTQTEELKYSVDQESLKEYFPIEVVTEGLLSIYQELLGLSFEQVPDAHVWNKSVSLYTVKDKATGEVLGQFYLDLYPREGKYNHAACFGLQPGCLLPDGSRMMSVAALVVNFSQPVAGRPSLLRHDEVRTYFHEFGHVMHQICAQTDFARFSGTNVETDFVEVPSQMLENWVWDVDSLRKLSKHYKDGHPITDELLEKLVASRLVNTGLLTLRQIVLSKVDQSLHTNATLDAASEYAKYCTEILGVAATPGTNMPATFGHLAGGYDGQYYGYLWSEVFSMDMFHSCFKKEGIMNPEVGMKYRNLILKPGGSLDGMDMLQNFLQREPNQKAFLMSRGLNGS
T2 sequence (P42676 38-704): as above

Row | Structure (SMILES) | Amax (maximum % activation achieved) (Neurolysin (Nln); [2]) | % activity at 10 [1] [%] | % activity at (100) [1] [%] | also measured
1 | N[C@H](Cc1c[nH]cn1)C(=O)Nc1ccccc1 [Compound 6b, (R)-2-amino-3-(1H-imidazol-4-yl)-N-phenylpropanamide] | 440.3 (414.9 to 470.4) % |  |  | EC50 (Neurolysin (Nln); 95% CI in parentheses): 114 µM
2 | N[C@@H](Cc1c[nH]cn1)C(=O)NCCCc1ccccc1 [Compound 7a, (S)-2-amino-3-(1H-imidazol-4-yl)-N-(3-phenylpropyl)propanamide] | 288.1 (273.6 to 303.8) % |  |  | 
3 | N[C@H](Cc1c[nH]cn1)C(=O)NCCCc1ccccc1 [Compound 7b, (R)-2-amino-3-(1H-imidazol-4-yl)-N-(3-phenylpropyl)propanamide] | 281.8 (269.9-294.5) % |  |  | 
4 | N[C@@H](Cc1c[nH]cn1)C(=O)NCCCCc1ccccc1 [Compound 8a, (S)-2-amino-3-(1H-imidazol-4-yl)-N-(4-phenylbutyl)propanamide] | 328 (309-351) % |  |  | 
5 | N[C@H](Cc1c[nH]cn1)C(=O)NCCCCc1ccccc1 [Compound 8b, (R)-2-amino-3-(1H-imidazol-4-yl)-N-(4-phenylbutyl)propanamide] | 233.8 (215.9 to 254.8) % |  |  | 
6 | N[C@H](Cc1c[nH]cn1)C(=O)NCc1ccc2ccccc2c1 [Compound 10b, (R)-2-amino-3-(1H-imidazol-4-yl)-N-(naphthalen-2-ylmethyl)propanamide] | 197.5 (184.9 to 214.8) % |  |  | EC50 (Neurolysin (Nln); 95% CI in parentheses): 6.3 µM
7 | N[C@H](Cc1c[nH]cn1)C(=O)NCc1cccc2ccccc12 [Compound 10d, (R)-2-amino-3-(1H-imidazol-4-yl)-N-(naphthalen-1-ylmethyl)propanamide] | 343 (325.2 to 363.5) % |  |  | 
8 | N[C@H](Cc1c[nH]cn1)C(=O)Nc1cccc2cccnc12 [Compound 11b, (R)-2-amino-3-(1H-imidazol-4-yl)-N-(quinolin-8-yl)propanamide] | 255.2 (239.9 to 278.9) % |  |  | 
9 | CC1CN(CCCN)C(C)CN1CCCN (stereo not drawn) [Compound 14541] |  | 97 | 103 | 
10 | CN1CCC(O)(c2ccccc2)C(CCC(=O)N2CCCC2)C1.Cl (stereo not drawn) [Compound 15180] |  | 102 | 95 | 
11 | O=C(O)C1C2C=CC(O2)C1C(=O)NCCCN1CCOCC1 (stereo not drawn) [Compound 47096] |  | 101 | 111 | 
12 | CC(NCCN1CCCC1)C(O)c1ccc(O)c(O)c1.Cl (stereo not drawn) [Compound 48778] |  | 89 | 84 | 
13 | COCN1CCC2N(COC)CCC3N(COC)CCC1N23 (stereo not drawn) [Compound 82001] |  | 105 | 100 | 
14 | O=P1(NCC2CCCO2)OCC2(CO1)COP(=O)(NCC1CCCO1)OC2 (stereo not drawn) [Compound 88659] |  | 100 | 100 | 
15 | NCC(=O)N1CCC[C@H]1C(=O)NCC(=O)NCC(=O)O [Compound 89624] (H-GPGG-OH) |  | 102 | 38 | 
16 | CCOCCOCCN1CNc2nc(N)[nH]c(=O)c2C1 [Compound 92597] |  | 105 | 98 | 
17 | CN(CCc1cnc2nc(N)[nH]c(=O)c2n1)c1ccc(C(=O)O)cc1 [Compound 121184] |  | 77 | 18 | 
18 | CNCCc1cn(C2OC(CO)C(O)C(O)C2O)cn1 (stereo not drawn) [Compound 131922] |  | 96 | 28 | 
19 | N#CC(C#N)N=Nc1ccc(S(=O)(=O)N=C(N)N)cc1 [Compound 134119] |  | 83 | 41 | 
20 | Clc1cc(Cl)c(C[N+]23CN4CN(CN(C4)C2)C3)cc1Cl.[Cl-] [Compound 155877] |  | 82 | 4 | 
21 | CC1(C)SC(C(NC(=O)Cc2ccccc2)C(=O)O)NC1C(=O)O (stereo not drawn) [Compound 163084] |  | 103 | 102 | 
22 | S=C(NCN1CCNCC1)C(=S)NCN1CCNCC1 [Compound 203396] |  | 102 | 106 | 
23 | COC1OC2COC(c3ccccc3)OC2C(N=Cc2ccccc2)C1O (stereo not drawn) [Compound 210826] |  | 101 | 105 | 
24 | COc1ccc2c(c1)c(=O)c(C(=O)O)cn2CCCOc1ccc([N+](=O)[O-])cc1 [Compound 211002] |  | 104 | 100 | 
25 | Cc1cn(C(C=O)OC(C=O)CO)c(=O)[nH]c1=O (stereo not drawn) [Compound 266752] |  | 107 | 97 | 
26 | CCCCCCN(C)C12CN3CN(CN(C3)C1)C2 [Compound 281707] |  | 109 | 113 | 

Row | Structure (SMILES) | Amax (maximum % activation achieved) (Neurolysin (Nln); [2]) | % activity at 10 [1] [%] | % activity at (100) [1] [%] | also measured
27 | CC1(C)CC(=O)C(CC(=O)c2ccccc2)=C(NN=C(N)N)C1 [Compound 282137] |  | 106 | 94 | 
28 | NCCCNCCSP(=O)(O)O [Compound 296961] |  | 106 | 127 | 
29 | NCC(SSC(CN)C(=O)O)C(=O)O (stereo not drawn) [Compound 302851] |  | 104 | 80 | 
30 | O=C1NC(Cc2c[nH]cn2)C(=O)N2CCCC12 (stereo not drawn) [Cyclo(His-Pro)] | Inactive |  |  | A50 (concentration required to activate Nln by 50%) (Neurolysin (Nln); 95% CI in parentheses): Inactive
31 | N[C@@H](Cc1c[nH]cn1)C(=O)NCCc1ccc(F)cc1 [DF-2-2B] | 323.1 (311.4 to 335.6) % |  |  | EC50 (Neurolysin (Nln); 95% CI in parentheses): 27.9 µM
32 | N[C@@H](Cc1c[nH]cn1)C(=O)NCc1ccccc1 [DF-3-2B] |  |  |  | Amax (maximum % activation achieved) (Neurolysin (Nln)): 152.2 (137.3 to 171.5) %
33 | N[C@@H](Cc1c[nH]cn1)C(=O)NCc1ccc(F)cc1 [DF-6-2A] |  |  |  | Amax (maximum % activation achieved) (Neurolysin (Nln)): 252 (235.6 to 270.5) %
34 | N[C@@H](Cc1c[nH]cn1)C(=O)NCc1ccc(C(F)(F)F)cc1 [DF-8-2] |  |  |  | Amax (maximum % activation achieved) (Neurolysin (Nln)): 305.2 (285.3 to 328) %
35 | N[C@@H](Cc1c[nH]cn1)C(=O)NCc1ccc2ccccc2c1 [DF-9-2] | 262.3 (246.7 to 279.4) % |  |  | EC50 (Neurolysin (Nln); 95% CI in parentheses): 12.3 µM
36 | N[C@@H](Cc1c[nH]cn1)C(=O)NCc1ccccc1C(F)(F)F [DF-10-2] |  |  |  | Amax (maximum % activation achieved) (Neurolysin (Nln)): 334 (313.7 to 357.2) %
37 | N[C@H](Cc1c[nH]cn1)C(=O)NCCc1ccccc1C(F)(F)F [HP2CF3] |  |  |  | Amax (maximum % activation achieved) (Neurolysin (Nln)): 396.2 (384.5 to 408.5) %
38 | N[C@H](C(=O)N1CCC[C@H]1C(=O)O)c1c[nH]cn1 [His-Pro] |  |  |  | Amax (maximum % activation achieved) (Neurolysin (Nln)): 502 (488.4 to 515.7) %
39 | CC(C)(C)OC(=O)N[C@@H](Cc1c[nH]cn1)C(=O)N[C@H](Cc1ccccc1)C(=O)O [NK-61-2A] (Boc-His-[dF]-OH) | Inactive |  |  | A50 (concentration required to activate Nln by 50%) (Neurolysin (Nln); 95% CI in parentheses): Inactive
40 | N[C@@H](Cc1c[nH]cn1)C(=O)NCCc1ccccc1 [NK-61-4A] | 231 (216.2 to 248.9) % |  |  | 
41 | CC(C)(C)OC(=O)N[C@@H](Cc1c[nH]cn1)C(=O)NCCc1cc2ccccc2[nH]1 [PT-1-172] | Inactive |  |  | A50 (concentration required to activate Nln by 50%) (Neurolysin (Nln); 95% CI in parentheses): Inactive
42 | O=C(CCc1cnc[nH]1)NCCc1c[nH]c2ccccc12 [PT-1-177] | Inactive |  |  | A50 (concentration required to activate Nln by 50%) (Neurolysin (Nln); 95% CI in parentheses): Inactive
43 | COc1cccc(CCNC(=O)[C@H](N)Cc2c[nH]cn2)c1 [SR15-1d] | 255.3 (230.5 to 284.8) % |  |  | 
44 | COc1ccccc1CNC(=O)[C@H](N)Cc1c[nH]cn1 [SR16-1d] |  |  |  | Amax (maximum % activation achieved) (Neurolysin (Nln)): 324.9 (304 to 349) %
45 | N[C@@H](Cc1c[nH]cn1)C(=O)NCCc1ccc2ccccc2c1 [SR18-1] |  |  |  | Amax (maximum % activation achieved) (Neurolysin (Nln)): 323.7 (310.3 to 337.9) %
46 | N[C@H](Cc1c[nH]cn1)C(=O)NCCc1ccc2ccccc2c1 [SR19-2d] |  |  |  | Amax (maximum % activation achieved) (Neurolysin (Nln)): 339.8 (325.4 to 355.4) %
47 | COc1ccc(CNC(=O)[C@@H](N)Cc2c[nH]cn2)cc1 [SR20-1d] |  |  |  | Amax (maximum % activation achieved) (Neurolysin (Nln)): 428.8 (373 to 523.5) %
48 | N[C@@H](Cc1c[nH]cn1)C(=O)N1CCCC1 [SR-5-3d] | 173 (158.5 to 194.1) % |  |  | 
49 | N[C@@H](Cc1c[nH]cn1)C(=O)NCCc1cc2ccccc2[nH]1 [SR-7-2d] |  |  |  | Amax (maximum % activation achieved) (Neurolysin (Nln)): 259 (240.7 to 281) %
50 | N[C@H](Cc1c[nH]cn1)C(=O)NCCc1cc2ccccc2[nH]1 [SR-8-2d] |  |  |  | Amax (maximum % activation achieved) (Neurolysin (Nln)): 132 (122.5 to 143.6) %
51 | N[C@@H](Cc1c[nH]cn1)C(=O)NCc1cccc2ccccc12 [SR-9-1d] | 264 (256.3 to 272.6) % |  |  | 
52 | N[C@H](Cc1c[nH]cn1)C(=O)NCc1cccc2ccccc12 [SR-10-1d] | 343 (325.2 to 363.5) % |  |  | 
